Earlier results as cited in patent US20260275225A1, “LIQUID ALKYLATED PHENYL-ALPHA-NAP[…] REDUCED AQUATIC TOXICITY” (BASF SE, priority 2023, published 2026).
Converted amounts (≈) assume the structure as drawn.

Tested on: daphnids
Details: OECD Test 202; from commercially available Amine A safety data sheets

In the case of c1ccc(Nc2cccc3ccccc23)cc1 [Amine A, n-Phenyl-1-naphthylamine], the EC50 is given as 0.32 µg/mL (≈ 1.46 µM).
